Reference: US20050182242A1, “Global analysis of protein activities using proteome chips” (priority 2001, published 2005)

Experiments:
[1] = system: phosphatidylcholine (PC) liposomes; assay: Yeast proteome chip probed with PC liposomes; conditions: liposome binding signal on yeast proteome chip, Cy3-streptavidin detection
Excerpt: (§1) To identify PI-binding proteins in yeast, liposomes were used as probes because the liposome provides the most relevant physiological condition to assay the interactors. Six types of liposomes were used. Each contains phosphatidylcholine (“PC”) with 1% (w/w) N-(biotinoyl)-1,2-dihexadecanoyl-sn-glycero-3-phosphoethanolamine, triethylammonium salt (biotin DHPE). The biotinylated lipid serves as a label that can be detected by Cy3-streptavidin (21). In addition to PC, the five other liposomes contain either 5% (w/w) PI(3)P, PI(4)P, PI(3,4)P2, PI(4,5)P2, or PI(3,4,5)P3 (FIG. 3A).
(§2) The protein-liposome interaction was assayed as follows. Appropriate amounts of each lipid in chloroform were mixed and dried under nitrogen. The lipid mixture was resuspended in TBS buffer by vortexing. The liposomes were created by sonication. Blocked proteome chips were washed three to five times in PBS buffer, and the extra liquid on the glass surface was removed by tapping the slides vertically on a KIMWIPE™. 200 μl of liposome solution was added to the proteome chip and immediately covered by a hydrophobic plastic cover slip (GRACE BIO-LAB™, USA). After trapped air bubbles were removed, the chip was incubated in a humidity chamber at RT for one hour. To remove the cover slip, the chip was immersed into large volume of PBS buffer (50 ml), so that the slip would float away. The chip was then moved to a second PBS bath (>50 ml) and washed 3×5 min with shaking at RT. After removing extra liquid on the surface of the chip, about 100 μl of Cy3 or Cy5 conjugated streptavidin (PIERCE™, USA; 1:2000 to 1:4000 dilution) was added to the surface and covered by a hydrophobic plastic cover slip (GRACE BIO-LABS™, USA). The chip was incubated for greater than 30 min in the dark at RT. The chip was then washed as described above. To completely remove the liquid on the chip, the chip was spun to dryness at 1500-2000 rpm for 5-10 min at RT.
• 1. S. Fields, Y. Kohara, D. J. Lockhart, Proc. Natl. Acad. Sci. 96, 8825 (1999); A. Goffeau et al., Science 274, 563 (1996). • 2 P. Ross-Macdonald et al., Nature 402, 413 (1999); J. L., DeRisi, V. R. Iyer, P. O. Brown, Science 278, 680 (1997); E. A. Winzeler et al., Science 285, 901 (1999). P. Uetz et al., Nature 403, 623 (2000); T. Ito et al., Proc. Natl. Acad. Sci. USA. 97, 1143 (2000) • 3 H. Zhu, M. Snyder, Curr. Opin. Chem. Biol. 5, 40 (2001). • 4 M. R. Martzen et al., Science 286, 1153 (1999). • 5 H. Zhu et al., Nat. Genet. 26, 283 (2000). • 6 G. MacBeath, S. L. Schreiber, Science 289, 1760 (2000). • 7 A. Caveman, J. Cell Sci. 113, 3543 (2000). • 8 P. Arenkov et al., Anal. Biochem 278, 123 (2000). • 9 D. A. Mitchell, T. K. Marshall, R. J. Deschenes, Yeast 9, 715 (1993). The expression vector pEGH was created by inserting an RGS-HisX6 epitope tag between the GST gene and the polycloning site of pEG(KG). The yeast ORFs were cloned using the strategy described previously (5), except every step was done in a 96-well format. Plasmid DNAs confirmed by DNA sequencing were reintroduced into both yeast (Y258) and E. coli (DH5a). […] 0.1 mM calcium was present in buffers in all subsequent steps. The chip was washed three times with PBS at RT. Cy3-conjugated streptavidin (Jackson IR, USA) (1:5000 dilution) was added to the chip and incubated for 30 min at RT. After extensive washing, the chip was spun dry and scanned using a microarray scanner; the data was subsequently acquired with the GENEPIX™ array densitometry software (Axon, USA). • 12 S. S. Hook, A. R. Means, Annu. Rev. […]

PI(3,4,5)P3 liposomes = assay: Yeast proteome chip probed with PI(3,4,5)P3 liposomes; conditions: liposome binding signal on yeast proteome chip, Cy3-streptavidin detection
Excerpt: as §1, §2
• 1. S. Fields, Y. Kohara, D. J. Lockhart, Proc. Natl. Acad. Sci. 96, 8825 (1999); A. Goffeau et al., Science 274, 563 (1996). • 2 P. Ross-Macdonald et al., Nature 402, 413 (1999); J. L., DeRisi, V. R. Iyer, P. O. Brown, Science 278, 680 (1997); E. A. Winzeler et al., Science 285, 901 (1999). P. Uetz et al., Nature 403, 623 (2000); T. Ito et al., Proc. Natl. Acad. Sci. USA. 97, 1143 (2000) • 3 H. Zhu, M. Snyder, Curr. Opin. Chem. Biol. 5, 40 (2001). • 4 M. R. Martzen et al., Science 286, 1153 (1999). • 5 H. Zhu et al., Nat. Genet. 26, 283 (2000). • 6 G. MacBeath, S. L. Schreiber, Science 289, 1760 (2000). • 7 A. Caveman, J. Cell Sci. 113, 3543 (2000). • 8 P. Arenkov et al., Anal. Biochem 278, 123 (2000). • 9 D. A. Mitchell, T. K. Marshall, R. J. Deschenes, Yeast 9, 715 (1993). The expression vector pEGH was created by inserting an RGS-HisX6 epitope tag between the GST gene and the polycloning site of pEG(KG). The yeast ORFs were cloned using the strategy described previously (5), except every step was done in a 96-well format. Plasmid DNAs confirmed by DNA sequencing were reintroduced into both yeast (Y258) and E. coli (DH5a). […] 0.1 mM calcium was present in buffers in all subsequent steps. The chip was washed three times with PBS at RT. Cy3-conjugated streptavidin (Jackson IR, USA) (1:5000 dilution) was added to the chip and incubated for 30 min at RT. After extensive washing, the chip was spun dry and scanned using a microarray scanner; the data was subsequently acquired with the GENEPIX™ array densitometry software (Axon, USA). • 12 S. S. Hook, A. R. Means, Annu. Rev. Pharmacol. Toxicol.41, 471 (2001). • 13 M. S. Cyert, R. Kunisawa, D. Kaim, J. Thorner, Proc. Natl. Acad. Sci. USA 88, 7376 (1991). • 14 D. A. Stirling, K. A. Welch, M. J. Stark, EMBO J. 13, 4329 (1994). • 15 F. Bohl, Kruse, EMBO J. 19, 5514 (2000); E. Bertrand et al., Mol. Cell 2, 437 (1998). • 16 D. C. Winter, E. Y. Choe, R. Li, Proc. Nat. Acad Sci. USA 96, 7288 (1999). • 17 C.

six different liposomes = assay: Reverse membrane assay: proteins spotted on nitrocellulose probed with six liposomes; format: binding
Procedure: B. A reverse assay was carried out to test for protein-lipid interactions. The proteins were prepared and spotted onto nitrocellulose filters in a dilution series and probed with the six different liposomes. As a control, the six liposomes were also added to the BSA-blocked membrane. After extensive washing, the bound liposomes were detected using an HRP-conjugated streptavidin and an ECL kit.
C. Linear correlation between the binding signals and the amounts of Rim15p in a membrane assay. When liposome-binding signals of Rim15p from the membrane assay (FIG. 4B) were plotted against the concentration gradient of the spotted Rim15p, the binding signals of PI(4)P, PI(3,4)P2, PI(3)P, and PI(4,5)P2 correlated linearly with the amounts of Rim15p.
Therefore, six proteins, i.e., Rim15p, Eno2p, Hxk1p, Sps1p, Yg1059wp, and Gcn2p, were further tested for phosphoinositol binding using two types of standard assays (Williamson, 2000, Nat. Struct Biol. 7(10):834-7). For Rim15p, Eno2p, and Hxk1p, PI(4,5)P2 liposomes were first adhered to a nitrocellulose membrane, which was then blocked by BSA; different amounts of the GST fusion proteins and a GST control were used to probe the membrane, and bound proteins were detected using anti-GST antibodies. […] We also carried out the reverse assay for four GST fusion proteins, Rim15p, Sps1p, Yg1059wp, and Gcn2p (Guerra et al., 2000, Biosci. Rep. 20: 41). Different amounts of these purified proteins were spotted onto nitrocellulose filters and probed with the six different liposomes (FIG. 5B). The bound liposomes were detected using a horseradish peroxidase (“HRP”)-conjugated streptavidin.

In the case of “RIM15: yeast protein kinase, regulator of glucose metabolism, GST-HisX6 fusion”, the PC [1] was 244.76, the “PI(3, 4, 5)P3” value (PI(3,4,5)P3 liposomes) was 1219.28 and the “liposome binding in reverse membrane assay” value (six different liposomes; HRP-conjugated streptavidin) was “bound strongest to PI(3)P and PI(4)P and PI(3,4)P2”. For the same substance, the “affinity of PI(4)P relative to control PC” value (six different liposomes; membrane assay, signal vs amount of protein) was “at least three-fold higher”.
